Experimental data published in US12410228B2, “Insulin analogs” (UNIVERSITY OF UTAH RESEARCH FOUNDATION, priority 2016, dated 2025).
pEC50, pIC50: −log10 of the molar value.

Tests used:
fish = test: Effect on fish (injection or presence in the water); type: in vivo
human IR-B = molecular target: T1, human IR-B (Homo sapiens, UniProt P06213); test: cell-based
T1 construct: expressed in transfected cells; host or cells: NIH 3T3 mouse fibroblasts overexpressing human IR-B (puromycin selection)

human IR (isoform B) = molecular target: T2, human IR (isoform B) (Homo sapiens, UniProt P06213); test: biochemical; type: binding
T2 construct: expressed in transfected cells; host or cells: R- IR-B cells, lysed with Triton X-100 and captured with anti-IR antibody 83-7; This comes from the general description of the Denley et al. 2004 format

[1] = relative to insulin; Bao et al. 1997; cited from earlier work
hIR = hIR (Homo sapiens, UniProt P06213); test: hIR activation / insulin signalling activation by DOI analogues and venom insulins (Example 11, FIGS. 22-27); type: cell-based

For CC[C@H](C)[C@@H]1NC(=O)[C@H](CC(C(=O)O)C(=O)O)NC(=O)[C@H](CO)NC(=O)CNC(=O)[C@@H](NC(=O)[C@H](CCCNC(=N)N)NC(=O)[C@H](Cc2c[nH]cn2)NC(=O)[C@H](CCCCN)NC(=O)[C@@H]2C[C@@H](O)CN2C(=O)[C@@H](NC(=O)[C@H](CC(=O)O)NC(=O)[C@H](Cc2ccccc2)NC(=O)[C@@H](N)[C@@H](C)O)[C@@H](C)O)CSSC[C@@H]2NC(=O)[C@@H](NC(=O)[C@H](Cc3c[nH]cn3)NC(=O)[C@H](CC(C(=O)O)C(=O)O)NC(=O)[C@@H](NC(=O)[C@@H](NC(=O)CN)C(C)C)C(C)C)C[Se][Se]C[C@H](NC(=O)[C@@H]3CCCN3C(=O)[C@H](CCCNC(=N)N)NC(=O)[C@H](Cc3c[nH]cn3)NC2=O)C(=O)N[C@@H](CO)C(=O)N[C@@H](CC(N)=O)C(=O)N[C@@H](C)C(=O)N[C@@H](CCC(=O)O)C(=O)N[C@@H](Cc2ccccc2)C(=O)N[C@@H](CCCCN)C(=O)N[C@@H](CCCCN)C(=O)N[C@@H](Cc2ccc(O)cc2)C(=O)N[C@H](C(N)=O)CSSC[C@@H](C(=O)N[C@@H](Cc2ccc(O)cc2)C(=O)N[C@@H](CCCNC(=N)N)C(=O)O)NC(=O)[C@H](CC(C)C)NC(=O)[C@H](CC(=O)O)NC(=O)[C@H](CCSC)NC(=O)[C@H](Cc2ccc(O)cc2)NC(=O)[C@H](CO)NC(=O)[C@H](CC(N)=O)NC(=O)[C@H]([C@@H](C)O)NC1=O [sCon-Ins G1], which “hypoglycemic effect in fish” value (fish; injected into fish) is on record?
The value was “induces hypoglycemic shock”.

What about the “effect on fish motility” value (fish; present in the water) of the same compound?
The value was “slows fish motility”.

And the pEC50 (human IR-B)?
The pEC50 was 8.10.

And the “efficiency of inducing Akt phosphorylation relative to PTM-free analogue” value (human IR-B)?
The value was “eight-fold greater efficiency”.

What about the pIC50 (human IR (isoform B)) of the same compound?
The pIC50 was 7.76.

And the “activity / affinity at human IR relative to human insulin (fold less)” value (human IR (isoform B))?
Its value is “thirty-fold less active”.

What about the “activity against the human IR-B relative to PTM-free analogue” value (human IR (isoform B)) of the same compound?
The value was “four times more active”.

For “DOI: monomeric analogue lacking residues 23 to 30 of the B chain of human insulin [reference compound]”, which bioactivity preserved [1] is on record?
The bioactivity preserved was “less than 0.1%”.

And the “potency in hIR activation, comparison in words” value (hIR)?
The value was “same”.

And the “potency relative to human insulin (fold weaker)” value (hIR; relative to human insulin)?
Its value is 1,000 fold.

For “hIns[TyrB15, TyrB20, DOI]: des-octapeptide human insulin with Tyr at B15 and B20”, which “activity in Akt phosphorylation assay relative to hIns[DOI]” value (human IR-B) is on record?
Its value is “ca five-fold more active”.

Which “potency in hIR activation, comparison in words” value (hIR) does the source give for “quadruple DOI mutant: DOI analogue with A8 His, A9 Arg, B10 Glu and B20 Tyr; A chain SEQ ID NO: 39, B chain SEQ ID NO: 30” here?
Its value is “comparable to that of human insulin”.
